From PMC8246084, “Mapping the binding site topology of amyloid protein aggregates using multivalent ligands” (Chemical Science, 2021) come the findings set out here.

Data set [1] can be described thus: Solubility for fluorescence titrations in PBS. Type of data set: physicochemical. To be noted: PBS 1× titration conditions. An excerpt: Eqn (1)–(3) can be fit to the two sets of titration data in Fig. 3 to determine the dissociation constant Kd and brightness (ef) of the free and bound BTA dimer, and in the case of high affinity binding, the concentration of binding sites on the protein fibrils. In all cases, the titration data fit well to a 1 : 1 binding isotherm, and the lines shown in Fig. 3 are the calculated lines of best fit.
Fluorescent titrations with the polydisperse mixtures of BTA dimers were used to measure the apparent binding affinities for α-synuclein fibrils in the same way as described above for the monodisperse BTA dimers. The titration data fit well to a 1 : 1 binding isotherm allowing for the fluorescence emission from the free dye as described above, and the results are summarised in Table 2. […] The dissociation constants for the other polydisperse BTA dimers are in the same range as those measured for the monodisperse analogues. […]
5. Fluorescence titrations […]
The fluorescence spectra were analysed using a Microsoft Excel spreadsheet to fit the changes in fluorescence intensity at fixed wavelengths to a 1:1 binding isotherm by optimizing the association constant, the optical brightness of the free and bound guest, and the concentration of protein binding sites using purpose written VBA macros. […]
Figure S25. Fluorescence titration of compound 14. […]
Figure S26. Fluorescence titration of compound 15. […]

Data set [2] has as its target T1, α-synuclein aggregates (LB509/pS129-positive Lewy bodies) (Homo sapiens, UniProt P37840).
T1 construct: tissue Cambridge Brain Bank; host or cells: post-mortem human brain sections, Parkinson's disease, substantia nigra
Put plainly: Staining of brain sections from patients with Parkinson's disease. To be noted: compound 100 nM. An excerpt: (§1) Brain sections from patients with Parkinson's disease were labelled with antibodies against α-synuclein (LB509 and pS129) and stained with compounds 13, 14 and 15 (Fig. 8a). LB509/pS129-positive Lewy bodies, that were identified as cytoplasmic spheres, were stained by both compounds 14 and 15 but not by compound 13. […] To assess any potential cross-reactivity with other pathological amyloid aggregates, such as Aβ plaques and neurofibrillary tangles of tau, brain sections from patients with Alzheimer's disease were labelled with antibody against tau (dako tau) and Aβ (4G8) and stained with compounds 13, 14 and 15 (Fig. 8b).
(§2) Fig. 8 Fluorescence microscope images of human brain sections. (a) Sections from patients with Parkinson's disease labelled with antibodies against α-synuclein (LB509 and pS129) and stained with compounds 13, 14 and 15 (100 nM). (b) Sections from patients with Alzheimer's disease labelled with antibodies against tau (dako tau) and Aβ (4G8) and stained with compounds 13, 14 and 15 (1 μM). Scale bar 20 μm.
(§3) Frozen brain tissues from neuropathologically confirmed cases of PD and AD were obtained from the Cambridge Brain Bank (Table S3). Tissue blocks were post-fixed in 4% paraformaldehyde and cryoprotected before snap freezing in OCT. Brain sections (15 μm) were generated using a cryostat (Bright OTF5000) for immunohistochemistry and compound staining.
(§4) Table S3. Details of human tissue used (SN substantia nigra, FL frontal lobe) Case no Diagnosis Braak Stage Brain region Age
9. Immunohistochemistry and Staining
Fixed brain sections were washed with 70% EtOH and allowed to air dry for 20 min before incubation overnight at 4°C with either a mixture of monoclonal antibodies for α-syn (1:500, ab27766, Abcam) and pS129 α-syn (1:500, ab51253, Abcam) for PD sections or a mixture of monoclonal antibody for Aβ (1:500, 800701, Biolegend) and polyclonal antibody for human tau (1:500, A002401-2, Agilent) for AD sections. Sections were washed with PBS 3 x 15 min and incubated for 3 h at room temperature in secondary antibody, either a mixture of goat anti- […]
A11011, ThermoFisher) for PD sections or a mixture of goat anti-mouse ALEXA-647 (1:1000, A21235, ThermoFisher) and goat anti-rabbit ALEXA-546 (1:1000, A11035, ThermoFisher) for AD sections. Compounds 13, 14 and 15 were also diluted in the secondary antibody preparation at stated concentrations. Sections were washed with PBS 3 x 10 min and once with 70% EtOH 5 min before blocking autofluorescence with Autofluorescence Inhibitor (2160, Millipore) for 5 min. After 3 x 1 min washes in 70% EtOH sections were mounted using Fluorosave mounting medium (345789, Millipore). Fluorescence images were taken using a Leica DMI4000B.

Data set [3] deals with Tau-positive neuronal inclusions (Homo sapiens, UniProt P10636). In words: Staining of brain sections from patients with Alzheimer's disease (tau). The settings on record: compound 1 μM.
Tau-positive neuronal inclusions, sequence (P10636 623-708 limits assumed): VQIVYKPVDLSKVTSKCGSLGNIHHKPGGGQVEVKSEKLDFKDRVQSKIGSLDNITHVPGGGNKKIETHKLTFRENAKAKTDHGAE
Text: as §1, §2, §3, §4
(§5) 9. Immunohistochemistry and Staining […]
(§6) A11011, ThermoFisher) for PD sections or a mixture of goat anti-mouse ALEXA-647 (1:1000, A21235, ThermoFisher) and goat anti-rabbit ALEXA-546 (1:1000, A11035, ThermoFisher) for AD sections. […] Fluorescence images were taken using a Leica DMI4000B.

In data set [4] the test system is 4G8-positive extracellular plaques (Aβ). Put plainly: Staining of brain sections from patients with Alzheimer's disease (Aβ). Set-up: species or system human. To be noted: compound 1 μM.
Text: as §1, §2, §3, §4, §5, §6

The target in a further data set is α-synuclein fibrils (Homo sapiens, UniProt P37840). In words: Fluorescence titration with α-synuclein fibrils. It counts as binding.
Another data set has as its target T2, Aβ42 fibrils (Homo sapiens, UniProt P05067).
T2 construct: monomeric amyloid-b1-42; purchased Stratech A-1167-2-RPE
Put plainly: Fluorescence titration with Aβ42 fibrils. To be noted: monodisperse BTA dimers; 0.5 μM Aβ42; PBS 1× pH 7.4, 298 K; errors at 95% confidence limit; read-out: Dissociation constant (Kd) for binding to Aβ42 fibrils.

A further data set concerns the target T3, tau fibrils (htau 0N4R) (Homo sapiens, UniProt P10636).
T3 construct: purchased InVivo BioTech Services GmbH, Germany
In words: Fluorescence titration with tau fibrils. To be noted: monodisperse BTA dimers; 0.5 μM tau; PBS 1× pH 7.4, 298 K; errors at 95% confidence limit; read-out: Dissociation constant (Kd) for binding to tau fibrils.

For data set [5], the target named is α-synuclein sonicated fibrils (Homo sapiens, UniProt P37840). Put plainly: TIRFM imaging of α-synuclein aggregates in vitro. To be noted: nanomolar 15 (4 nM, 200 nM) vs 5 μM ThT; fibrils from 200 nM monomer. An excerpt: The highest affinity BTA dimers were investigated as fluorescence imaging agents for protein aggregates. Fig. 7 compares in vitro imaging of α-synuclein aggregates with 15 and with thioflavin T (ThT). ThT is widely used to image aggregates, because it has a very low fluorescence emission intensity in the free state, and there is a large increase in fluorescence emission on binding to protein aggregates. The corresponding change in fluorescence emission intensity is much lower for the BTA dimers described here (see Fig. 3).
Fig. 7 TIRFM images of α-synuclein sonicated fibrils in the presence of (a) 4 nM 15, (b) 200 nM 15 and (c) 5 μM ThT. Fibrils were obtained from 200 nM samples of the monomer. All images have the same contrast. Scale bar 10 μm.
7. Total internal reflection fluorescence microscopy (TIRFM) imaging
Imaging was performed using a homebuilt total internal reflection fluorescence microscope as reported previously.7 Briefly, this imaging mode restricts detectable axial fluorescence signal to within ~200 nm from the glass-water interface. […] Fluorescence was collected by the same objective and was separated from the returning TIR beam by a dichroic (Di01-R405/488/561/635, Semrock), and passed through […]
respectively). The images were recorded on an EMCCD camera (Evolve 512, Photometrics) operating in frame transfer mode (EMGain of 11.5 e−/ADU and 250 ADU/photon). […]

The mark [6] stands for this setting: monodisperse BTA dimers, 1 μM α-synuclein, PBS 1× pH 7.4, 298 K, errors at 95% confidence limit, read-out: Dissociation constant (Kd) for binding to α-synuclein fibrils.

Structures are written as SMILES. Like-named read-outs stand apart in the source and are kept apart here.

T3 sequence (P10636 1-383 isoform P10636-6): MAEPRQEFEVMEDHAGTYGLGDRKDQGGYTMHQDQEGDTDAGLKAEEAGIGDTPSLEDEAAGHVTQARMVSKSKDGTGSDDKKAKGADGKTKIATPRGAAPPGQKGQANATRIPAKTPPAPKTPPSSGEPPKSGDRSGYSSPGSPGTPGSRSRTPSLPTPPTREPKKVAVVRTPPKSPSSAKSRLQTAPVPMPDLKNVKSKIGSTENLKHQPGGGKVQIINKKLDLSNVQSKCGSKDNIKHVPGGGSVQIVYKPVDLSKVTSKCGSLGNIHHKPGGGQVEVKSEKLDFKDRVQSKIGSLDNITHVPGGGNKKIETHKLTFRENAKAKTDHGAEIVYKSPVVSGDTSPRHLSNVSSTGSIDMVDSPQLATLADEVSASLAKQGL
T2 sequence (P05067 672-713 limits assumed): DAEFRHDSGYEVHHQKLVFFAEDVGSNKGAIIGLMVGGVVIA

Regarding `CN(C)c1ccc(-c2nc3ccc(OCCOCCOCCOc4ccc5nc(-c6ccc(N(C)C)cc6)sc5c4)cc3s2)cc1` [Compound 13], the “Solubility (sufficient to determine accurate dissociation constants)” value in data set [1] is given as “not sufficiently soluble”. Moreover, the “Staining of LB509/pS129-positive Lewy bodies” value in data set [2] is “not”. For the same molecule, the “Staining of tau-positive neuronal inclusions” value in data set [3] is reported as “no staining”. In data set [4], the “Staining of 4G8-positive extracellular plaques” value is recorded as “no staining”.
As for `CN(C)c1ccc(-c2nc3ccc(OCCOCCOCCOCCOCCOCCOc4ccc5nc(-c6ccc(N(C)C)cc6)sc5c4)cc3s2)cc1` [Compound 14], the Kd (as a rule, the free concentration of one partner at which half of the binding sites on the other are occupied at equilibrium, for simple one-to-one binding) on α-synuclein fibrils (setting [6]) worked out at 0.19 ± 0.14 µM; at Aβ42 fibrils, 1.4 ± 1.6 µM; on tau fibrils (htau 0N4R), 0.9 ± 0.7 µM. Moreover, the “Co-localisation with α-synuclein antibodies elsewhere in the brain section” value in data set [2] was “significant amounts of co-localisation”. Further, the “Staining of LB509/pS129-positive Lewy bodies” value in data set [2] is listed as “stained”. Also, the “Staining of tau-positive neuronal inclusions” value in data set [3] was “no staining”. Moreover, the “Staining of 4G8-positive extracellular plaques” value in data set [4] is “no staining”.
With `CN(C)c1ccc(-c2nc3ccc(OCCOCCOCCOCCOCCOCCOCCOCCOCCOc4ccc5nc(-c6ccc(N(C)C)cc6)sc5c4)cc3s2)cc1` [Compound 15], the equilibrium dissociation constant (Kd) on α-synuclein fibrils (setting [6]) turned out to be 0.0027 ± 0.0015 µM; on Aβ42 fibrils it was 0.078 ± 0.026 µM; on tau fibrils (htau 0N4R), 1 ± 0.3 µM. Also, the “Staining of LB509/pS129-positive Lewy bodies” value in data set [2] was “stained”. The “Staining of tau-positive neuronal inclusions” value in data set [3] is “no staining”. Moreover, the “Staining of 4G8-positive extracellular plaques” value in data set [4] is given as “no staining”. For the same molecule, in data set [5], the “Image brightness compared with ThT” value is “brighter”.
`CN(C)c1ccc(-c2nc3ccc(OCCOCCOCCOCCOCCOCCOCCOCCOCCOCCOCCOCCOCCOCCOCCOc4ccc5nc(-c6ccc(N(C)C)cc6)sc5c4)cc3s2)cc1` [Compound 16]: the Kd on α-synuclein fibrils (setting [6]) came out at 0.035 ± 0.015 µM; on Aβ42 fibrils, 0.007 ± 0.005 µM; on tau fibrils (htau 0N4R) it was 0.11 ± 0.057 µM.
For `CN(C)c1ccc(-c2nc3ccc(OCCOCCOCCOCCOCCOCCOCCOCCOCCOCCOCCOCCOCCOCCOCCOCCOCCOCCOCCOCCOCCOc4ccc5nc(-c6ccc(N(C)C)cc6)sc5c4)cc3s2)cc1` [Compound 17] the same measures were 0.21 ± 0.18 µM, 0.32 ± 0.075 µM and 0.28 ± 0.048 µM.
In the case of `COCCOCCOCCOc1ccc2nc(-c3ccc(N(C)C)cc3)sc2c1` [monomeric BTA analogue], the dissociation constant (Kd) at α-synuclein fibrils (monomeric BTA analogue, fluorescence titration, read-out: Kd for α-synuclein (binding affinity too low to measure)) was above 1 µM.
